Data reported in patent publication US8349824B2, “Triazolopyridine compounds” (Hoffmann-La Roche Inc., priority 2010, dated 2013).

Molecular target: T1, human PDE10A full length (Homo sapiens, UniProt Q9Y233)
T1 construct: purchased Enzo Life Science, Lausen, Switzerland SE-534
Assay: PDE10A Scintillation Proximity Assay (SPA), human PDE10A full length assay
Type: biochemical
Conditions: 50 nM cGMP + 50 nM [3H]-cGMP, 20 minutes at room temperature, read-out: PDE10A inhibition IC50
Protocol: The following test was carried out in order to determine the activity of the compounds of the present invention. PDE10 activity of the compounds of the present invention was determined using a Scintillation Proximity Assay (SPA)-based method similar to the one previously described (Fawcett, L. et al., Proc Natl Acad Sci USA (2000) 97(7):3702-3707).
The human PDE10A full length assay was performed in 96-well micro titer plates. The reaction mixture of 50 μl contained 20 mM HEPES pH=7.5/10 mM MgCl2/0.05 mg/ml BSA (Sigma cat. #A-7906), 50 nM cGMP (Sigma, cat. #G6129) and 50 nM [^3H]-cGMP (GE Healthcare, cat. #TRK392 S.A. 13.2Ci/mmol), 3.75 ng/well PDE10A enzyme (Enzo Life Science, Lausen, Switzerland cat #SE-534) with or without a specific test compound. A range of concentrations of the potential inhibitor was used to generate data for calculating the concentration of inhibitor resulting in 50% of the effect (e.g. IC50, the concentration of the competitor inhibiting PDE10A activity by 50%). Non-specific activity was tested without the enzyme. The reaction was initiated by the addition of the substrate solution (cGMP and [^3H]-cGMP) and allowed to progress for 20 minutes at room temperature. The reaction was terminated by adding 25 μl of YSi-SPA scintillation beads (GE Healthcare, cat. #RPNQ0150) in 18 mM zinc sulphate solution (stop reagent). After 1 h under shaking, the plate was centrifuged one minute at 170 g to allow beads to settle. Afterwards, radioactive counts were measured on a Perkin Elmer TopCount Scintillation plate reader.

T1 sequence (Q9Y233 1-779 isoform Q9Y233-1): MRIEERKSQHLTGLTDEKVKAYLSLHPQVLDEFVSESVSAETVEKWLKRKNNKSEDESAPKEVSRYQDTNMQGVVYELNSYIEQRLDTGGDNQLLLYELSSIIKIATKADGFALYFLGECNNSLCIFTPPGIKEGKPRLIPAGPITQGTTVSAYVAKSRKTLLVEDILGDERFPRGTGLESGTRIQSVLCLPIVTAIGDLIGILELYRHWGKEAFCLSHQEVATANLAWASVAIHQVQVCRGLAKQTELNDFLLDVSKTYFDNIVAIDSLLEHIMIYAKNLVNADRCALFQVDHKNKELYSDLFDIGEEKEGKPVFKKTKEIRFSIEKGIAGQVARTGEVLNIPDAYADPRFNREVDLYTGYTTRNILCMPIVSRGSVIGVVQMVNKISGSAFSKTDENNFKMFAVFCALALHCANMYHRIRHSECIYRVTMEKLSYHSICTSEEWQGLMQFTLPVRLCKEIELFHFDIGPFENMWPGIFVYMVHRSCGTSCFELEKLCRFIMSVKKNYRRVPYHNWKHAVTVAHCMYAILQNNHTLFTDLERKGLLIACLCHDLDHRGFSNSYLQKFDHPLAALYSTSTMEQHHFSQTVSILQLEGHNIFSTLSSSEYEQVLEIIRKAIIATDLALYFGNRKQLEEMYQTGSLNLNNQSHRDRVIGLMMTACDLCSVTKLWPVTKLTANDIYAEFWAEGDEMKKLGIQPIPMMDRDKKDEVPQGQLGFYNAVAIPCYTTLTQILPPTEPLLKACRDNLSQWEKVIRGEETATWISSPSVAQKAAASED

SMILES	IC50 [nM]
COCCN(C)C(=O)c1cnn(C)c1C(=O)Nc1ccn2nc(-c3cccc(O)c3)nc2c1 [Example 87, 2-Methyl-2H-pyrazole-3,4-dicarboxylic acid 3-{[2-(3-hydroxy-phenyl)-[1,2,4]triazolo[1,5-a]pyridin-7-yl]-amide} 4-[(2-methoxy-ethyl)-methyl-amide]]	0.43
CN1CCN(C(=O)c2cnn(C)c2C(=O)Nc2ccn3nc(-c4cccc(F)c4)nc3c2)CC1 [Example 108, 2-Methyl-4-(4-methyl-piperazine-1-carbonyl)-2H-pyrazole-3-carboxylic acid [2-(3-fluoro-phenyl)-[1,2,4]triazolo[1,5-a]pyridin-7-yl]-amide]	15.6
Cn1ncc(C(=O)N2CCOCC2)c1C(=O)Nc1ccn2nc(-c3cccc(OCCF)c3)nc2c1 [Example 81, 2-Methyl-4-(morpholine-4-carbonyl)-2H-pyrazole-3-carboxylic acid {2-[3-(2-fluoro-ethoxy)-phenyl]-[1,2,4]triazolo[1,5-a]pyridin-7-yl}-amide]	0.59
Cn1ncc(C(=O)N2CCN3CCC2C3)c1C(=O)Nc1ccn2nc(-c3ccccc3)nc2c1 (stereo not drawn) [Example 129, 4-(1,4-Diaza-bicyclo[3.2.1]octane-4-carbonyl)-2-methyl-2H-pyrazole-3-carboxylic acid (2-phenyl-[1,2,4]triazolo[1,5-a]pyridin-7-yl)-amide]	1.1
COc1cccc(-c2nc3cc(NC(=O)c4c(C(=O)N5CCOCC5)cnn4C)ccn3n2)c1 [Example 76, 2-Methyl-4-(morpholine-4-carbonyl)-2H-pyrazole-3-carboxylic acid [2-(3-methoxy-phenyl)-[1,2,4]triazolo[1,5-a]pyridin-7-yl]-amide]	5.15
Cn1ncc(C(=O)N2CCOCC2)c1C(=O)Nc1ccn2nc(-c3ccccc3)nc2c1 [Example 12, 1-Methyl-4-(morpholine-4-carbonyl)-N-(2-phenyl-[1,2,4]triazolo[1,5-a]pyridin-7-yl)-1H-pyrazole-5-carboxamide]	0.27
CCN(C)C(=O)c1cnn(C)c1C(=O)Nc1ccn2nc(-c3cccc(OCF)c3)nc2c1 [Example 84, 2-Methyl-2H-pyrazole-3,4-dicarboxylic acid 4-(ethyl-methyl-amide)3-{[2-(3-fluoromethoxy-phenyl)-[1,2,4]triazolo[1,5-a]pyridin-7-yl]-amide}]	0.54
COCCN(C)C(=O)c1cnn(C)c1C(=O)Nc1ccn2nc(-c3ccccc3OCCF)nc2c1 [Example 132, 2-Methyl-2H-pyrazole-3,4-dicarboxylic acid 3-({2-[2-(2-fluoro-ethoxy)-phenyl]-[1,2,4]triazolo[1,5-a]pyridin-7-yl}-amide) 4-[(2-methoxy-ethyl)-methyl-amide]]	1.02
Cn1ncc(C(=O)N2CC3(COC3)C2)c1C(=O)Nc1ccn2nc(N3CCCC3)nc2c1 [Example 122, 2-Methyl-4-(2-oxa-6-aza-spiro[3.3]heptane-6-carbonyl)-2H-pyrazole-3-carboxylic acid (2-pyrrolidin-1-yl-[1,2,4]triazolo[1,5-a]pyridin-7-yl)-amide]	6.21
CCN(C)C(=O)c1cnn(C)c1C(=O)Nc1ccn2nc(-c3cccc(OCCF)c3)nc2c1 [Example 83, 2-Methyl-2H-pyrazole-3,4-dicarboxylic acid 4-(ethyl-methyl-amide)3-({2-[3-(2-fluoro-ethoxy)-phenyl]-[1,2,4]triazolo[1,5-a]pyridin-7-yl}-amide)]	0.63
COCCN(C)C(=O)c1cnn(C)c1C(=O)Nc1ccn2nc(-c3cccc(OCCF)c3)nc2c1 [Example 88, 2-Methyl-2H-pyrazole-3,4-dicarboxylic acid 3-({2-[3-(2-fluoro-ethoxy)-phenyl]-[1,2,4]triazolo[1,5-a]pyridin-7-yl}-amide)4-[(2-methoxy-ethyl)-methyl-amide]]	0.42
CN(CCO)C(=O)c1cnn(C)c1C(=O)Nc1ccn2nc(-c3ccccc3)nc2c1 [Example 92, 2-Methyl-2H-pyrazole-3,4-dicarboxylic acid 4-[(2-hydroxy-ethyl)-methyl-amide]3-[(2-phenyl-[1,2,4]triazolo[1,5-a]pyridin-7-yl)-amide]]	0.98
